Test results as given in patent US12528788B2, “Pesticidally active benzene- and azine-amide compounds” (SYNGENTA CROP PROTECTION AG, priority 2018, dated 2026).

How the values were obtained:
Type in all cases: in vivo
Plutella xylostella [1] = assay: Example B14: Plutella xylostella (diamondback moth), 96-well artificial diet; settings: 216 h, application rate of 500 ppm, 9 days after infestation
Procedure: Example B14: Plutella xylostella (Diamondback Moth)
96-well microtiter plates containing artificial diet were treated with aqueous test solutions, prepared from 10′000 ppm DMSO stock solutions, by a liquid handling robot. After drying, eggs (˜30 per well) were infested onto a netted lid which was suspended above the diet. The eggs hatch and L1 larvae move down to the diet. The samples were assessed for mortality 9 days after infestation.

Diabrotica balteata = assay: Example B1: Diabrotica balteata (corn root worm), maize sprouts sprayed, L2 larvae; settings: 96 h, application rate of 200 ppm, 4 days after infestation, L2 larvae on maize sprouts, read-out: control in at least one of the two categories (mortality or growth inhibition)
Procedure: Example B1: Diabrotica balteata (Corn Root Worm)
Maize sprouts placed onto an agar layer in 24-well microtiter plates were treated with aqueous test solutions prepared from 10′000 ppm DMSO stock solutions by spraying. After drying, the plates were infested with L2 larvae (6 to 10 per well). The samples were assessed for mortality and growth inhibition in comparison to untreated samples 4 days after infestation.

Plutella xylostella [2] = assay: Example B5: Plutella xylostella (diamond back moth), artificial diet, 24-well, eggs; settings: 192 h, application rate of 200 ppm, 8 days after infestation, read-out: control in at least one of the two categories (mortality or growth inhibition)
Procedure: Example B5: Plutella xylostella (Diamond Back Moth)
24-well microtiter plates with artificial diet were treated with aqueous test solutions prepared from 10′000 ppm DMSO stock solutions by pipetting. After drying, Plutella eggs were pipetted through a plastic stencil onto a gel blotting paper and the plate was closed with it. The samples were assessed for mortality and growth inhibition in comparison to untreated samples 8 days after infestation.

Spodoptera littoralis = assay: Example B9: Spodoptera littoralis (Egyptian cotton leaf worm), cotton leaf discs sprayed, L1 larvae; settings: foliar, 72 h, application rate of 200 ppm, 3 days after infestation, read-out: control in at least one of the three categories (mortality, anti-feedant effect or growth inhibition)
Chilo suppressalis = assay: Example B4: Chilo suppressalis (striped rice stemborer), artificial diet, L2 larvae; settings: 144 h, application rate of 200 ppm, 6 days after infestation, read-out: control in at least one of the three categories (mortality, anti-feedant effect or growth inhibition)
Procedure: Example B4: Chilo suppressalis (Striped Rice Stemborer)
24-well microtiter plates with artificial diet were treated with aqueous test solutions prepared from 10′000 ppm DMSO stock solutions by pipetting. After drying, the plates were infested with L2 larvae (6-8 per well). The samples were assessed for mortality, anti-feeding effect, and growth inhibition in comparison to untreated samples 6 days after infestation. Control of Chilo suppressalis by a test sample is given when at least one of the categories mortality, anti-feedant effect, and growth inhibition is higher than the untreated sample.

Myzus persicae = assay: Example B13: Myzus persicae (green peach aphid), 96-well sucrose solution; settings: 120 h, application rate of 50 ppm, 5 days after infestation
From the text: Example B13: Myzus persicae (Green Peach Aphid)
Test compounds prepared from 10′000 ppm DMSO stock solutions were applied by a liquid handling robot into 96-well microtiter plates and mixed with a sucrose solution. Parafilm was stretched over the 96-well microtiter plate and a plastic stencil with 96 holes was placed onto the plate. Aphids were sieved into the wells directly onto the Parafilm. The infested plates were closed with a gel blotting card and a second plastic stencil and then turned upside down. The samples were assessed for mortality 5 days after infestation.

| SMILES | mortality at 500 ppm (Plutella xylostella [1]) [%] | percent control (mortality or growth inhibition) at 200 ppm (Diabrotica balteata) [%] | percent control (mortality or growth inhibition) at 200 ppm (Plutella xylostella [2]) [%] | percent control (mortality, anti-feedant effect or growth inhibition) at 200 ppm (Spodoptera littoralis) [%] | percent control (mortality, anti-feedant effect or growth inhibition) at 200 ppm (Chilo suppressalis) [%] | mortality at 50 ppm (Myzus persicae) [%] |
| --- | --- | --- | --- | --- | --- | --- |
| CC(c1cccnc1-c1ncccn1)N(CC1CC1)C(=O)c1cc(C(F)(F)F)cc(C(F)(F)F)c1 (stereo not drawn) [Compound P1, N-(cyclopropylmethyl)-N-[1-(2-pyrimidin-2-yl-3-pyridyl)ethyl]-3,5-bis(trifluoromethyl)benzamide] | ≥ 80 | ≥ 80 | – | – | – | – |
| CC(c1cnccc1-c1ncccn1)N(CC1CC1)C(=O)c1cc(C(F)(F)F)cc(C(F)(F)F)c1 (stereo not drawn) [Compound P2, N-(cyclopropylmethyl)-N-[1-(4-pyrimidin-2-yl-3-pyridyl)ethyl]-3,5-bis(trifluoromethyl)benzamide] | ≥ 80 | – | ≥ 80 | – | – | – |
| CC(c1ncccc1-c1ncccn1)N(CC1CC1)C(=O)c1cc(C(F)(F)F)cc(C(F)(F)F)c1 (stereo not drawn) [Compound P3, N-(cyclopropylmethyl)-N-[1-(3-pyrimidin-2-yl-2-pyridyl)ethyl]-3,5-bis(trifluoromethyl)benzamide] | ≥ 80 | ≥ 80 | ≥ 80 | ≥ 80 | – | – |
| CC(c1ncncc1-c1ncccn1)N(CC1CC1)C(=O)c1cc(C(F)(F)F)cc(C(F)(F)F)c1 (stereo not drawn) [Compound P6, N-(cyclopropylmethyl)-N-[1-(5-pyrimidin-2-ylpyrimidin-4-yl)ethyl]-3,5-bis(trifluoromethyl)benzamide] | ≥ 80 | ≥ 80 | ≥ 80 | – | – | – |
| CC(c1nccnc1-c1ccccn1)N(CC1CC1)C(=O)c1cc(C(F)(F)F)cc(C(F)(F)F)c1 (stereo not drawn) [Compound P7, N-(cyclopropylmethyl)-N-[1-[3-(2-pyridyl)pyrazin-2-yl]ethyl]-3,5-bis(trifluoromethyl)benzamide] | ≥ 80 | ≥ 80 | ≥ 80 | ≥ 80 | – | – |
| CC(c1cnc(Cl)cc1-c1ncccn1)N(CC1CC1)C(=O)c1cc(C(F)(F)F)cc(C(F)(F)F)c1 (stereo not drawn) [Compound P8, N-[1-(6-chloro-4-pyrimidin-2-yl-3-pyridyl)ethyl]-N-(cyclopropylmethyl)-3,5-bis(trifluoromethyl)benzamide] | ≥ 80 | – | ≥ 80 | – | – | – |
| CC(c1nc(F)ccc1-c1ncccn1)N(CC1CC1)C(=O)c1cc(C(F)(F)F)cc(C(F)(F)F)c1 (stereo not drawn) [Compound P9, N-(cyclopropylmethyl)-N-[1-(6-fluoro-3-pyrimidin-2-yl-2-pyridyl)ethyl]-3,5-bis(trifluoromethyl)benzamide] | ≥ 80 | ≥ 80 | ≥ 80 | ≥ 80 | – | – |
| CC(c1cnc(C(F)(F)F)cc1-c1ncccn1)N(CC1CC1)C(=O)c1cc(C(F)(F)F)cc(C(F)(F)F)c1 (stereo not drawn) [Compound P10, N-(cyclopropylmethyl)-N-[1-[4-pyrimidin-2-yl-6-(trifluoromethyl)-3-pyridyl]ethyl]-3,5-bis(trifluoromethyl)benzamide] | ≥ 80 | – | ≥ 80 | ≥ 80 | – | – |
| CC(c1nccnc1-c1ccccn1)N(CC1CC1)C(=O)c1cc(Cl)cc(C(F)(F)F)c1 (stereo not drawn) [Compound P11, 3-chloro-N-(cyclopropylmethyl)-N-[1-[3-(2-pyridyl)pyrazin-2-yl]ethyl]-5-(trifluoromethyl)benzamide] | ≥ 80 | ≥ 80 | ≥ 80 | ≥ 80 | – | – |
| CC(NC(=O)c1cc(C(F)(F)F)cc(C(F)(F)F)c1)c1nccnc1-c1ncccc1F (stereo not drawn) [Compound P13, N-[1-[3-(3-fluoro-2-pyridyl)pyrazin-2-yl]ethyl]-3,5-bis(trifluoromethyl)benzamide] | – | ≥ 80 | ≥ 80 | ≥ 80 | ≥ 80 | – |
| CC(NC(=O)c1cc(C(F)(F)F)cc(C(F)(F)F)c1)c1nccnc1-c1ccccn1 (stereo not drawn) [Compound P25, N-[1-[3-(2-pyridyl)pyrazin-2-yl]ethyI]-3,5-bis(trifluoromethyl)benzamide] | ≥ 80 | ≥ 80 | ≥ 80 | ≥ 80 | – | ≥ 80 |
| CC(c1ccccc1-c1ncccn1)N(CC1CC1)C(=O)c1cc(C(F)(F)F)cc(C(F)(F)F)c1 (stereo not drawn) [Compound P26, N-(cyclopropylmethyl)-N-[1-(2-pyrimidin-2-ylphenyl)ethyl]-3,5-bis(trifluoromethyl)benzamide] | ≥ 80 | – | ≥ 80 | – | – | – |
| CC(c1ccccc1-c1ccccn1)N(CC1CC1)C(=O)c1cc(Cl)cc(C(F)(F)F)c1 (stereo not drawn) [Compound P27, 3-chloro-N-(cyclopropylmethyl)-N-[1-[2-(2-pyridyl)phenyl]ethyl]-5-(trifluoromethyl)benzamide] | ≥ 80 | – | ≥ 80 | – | – | – |
| CC(c1ccccc1-c1ccccn1)N(CC1CC1)C(=O)c1cc(C(F)(F)F)cc(C(F)(F)F)c1 (stereo not drawn) [Compound P28, N-(cyclopropylmethyl)-N-[1-[2-(2-pyridyl)phenyl]ethyl]-3,5-bis(trifluoromethyl)benzamide] | ≥ 80 | – | – | – | – | – |
| CC(NC(=O)c1cc(OCC(F)F)cc(C(F)(F)F)c1)c1nccnc1-c1ncc(C2CC2)cn1 (stereo not drawn) [Compound P32, N-[1-[3-(5-cyclopropylpyrimidin-2-yl)pyrazin-2-yl]ethyl]-3-(2,2-difluoroethoxy)-5-(trifluoromethyl)benzamide] | – | – | ≥ 80 | ≥ 80 | ≥ 80 | – |
| CC(NC(=O)c1cc(OC(F)F)cc(C(F)(F)F)c1)c1nccnc1-c1ncc(C2CC2)cn1 (stereo not drawn) [Compound P33, N-[1-[3-(5-cyclopropylpyrimidin-2-yl)pyrazin-2-yl]ethyl]-3-(difluoromethoxy)-5-(trifluoromethyl)benzamide] | – | ≥ 80 | ≥ 80 | ≥ 80 | ≥ 80 | – |
| CC(NC(=O)c1cc(OC(F)F)cc(C(F)(F)F)c1)c1nccnc1-c1ccc(F)cn1 (stereo not drawn) [Compound P35, 3-(difluoromethoxy)-N-[1-[3-(5-fluoro-2-pyridyl)pyrazin-2-yl]ethyl]-5-(trifluoromethyl)benzamide] | – | – | ≥ 80 | – | – | – |
| CC(NC(=O)c1cc(C(F)(F)F)cc(C(F)(F)F)c1)c1nccnc1-c1ccc(Cl)cn1 (stereo not drawn) [Compound P36, N-[1-[3-(5-chloro-2-pyridyl)pyrazin-2-yl]ethyl]-3,5-bis(trifluoromethyl)benzamide] | – | – | – | – | ≥ 80 | – |
